We go through 7 molecules from ChEMBL document CHEMBL1132333, “Synthesis and enantiomeric separation of 2-phthalimidino-glutaric acid analogues: potent inhibitors of tumor metastasis” (1999).

Structures are written as SMILES.

The test system of the test is Mus musculus. As to the kind of experiment: Compound (0.4 mmol/Kg) was evaluated for its ability to inhibit B16BL6 pulmonary metastasis in mice. The number of lung metastases of treated (T) and nontreated or control (C) is expressed as ratio, T/C. The test is classed as functional.
Turning to `O=C1CCC(N2C(=O)c3ccccc3C2=O)C(=O)N1` (configuration not stated) [THALIDOMIDE], the T/C is given as 0.9.

As to `CC(CCC(=O)O)(C(=O)O)N1Cc2ccccc2C1=O` (configuration not stated), the T/C stood at 0.25.

Regarding `O=C(O)CCC(C(=O)O)N1Cc2ccccc2C1=O` (configuration not stated), the T/C was found to be 0.2.

For the molecule `C[C@](CCC(=O)O)(C(=O)O)N1Cc2ccccc2C1=O`, the T/C was 0.15.

As for `C[C@@](CCC(=O)O)(C(=O)O)N1Cc2ccccc2C1=O`, the T/C came to 0.7.

In the case of `O=C(O)CCC(C(=O)O)N1Cc2cccc(O)c2C1=O` (configuration not stated), the T/C was determined as 0.95.

For the molecule `O=C(O)CCC(C(=O)O)N1Cc2ccc(O)cc2C1=O` (configuration not stated), the T/C is given as 0.9.
